Results reported in patent US12202818B2, “Compounds and methods for CD73 modulation and indications therefor” (Opna Bio SA, priority 2020, dated 2025).

Experiments:
[1] = biological target: T1, Human CD73 (amino acid residues 27-549) (Homo sapiens, UniProt P21589); experiment: CD73 enzymatic assay (luciferase-based indirect assay, CellTiter-Glo); assay type: biochemical; settings: 0.4 nM CD73, 150 μM AMP, 1 hour at room temperature
T1 construct: Human CD73 (amino acid residues 27-549); His tag (N); made in house; host or cells: E. coli
T1 sequence (P21589 27-549): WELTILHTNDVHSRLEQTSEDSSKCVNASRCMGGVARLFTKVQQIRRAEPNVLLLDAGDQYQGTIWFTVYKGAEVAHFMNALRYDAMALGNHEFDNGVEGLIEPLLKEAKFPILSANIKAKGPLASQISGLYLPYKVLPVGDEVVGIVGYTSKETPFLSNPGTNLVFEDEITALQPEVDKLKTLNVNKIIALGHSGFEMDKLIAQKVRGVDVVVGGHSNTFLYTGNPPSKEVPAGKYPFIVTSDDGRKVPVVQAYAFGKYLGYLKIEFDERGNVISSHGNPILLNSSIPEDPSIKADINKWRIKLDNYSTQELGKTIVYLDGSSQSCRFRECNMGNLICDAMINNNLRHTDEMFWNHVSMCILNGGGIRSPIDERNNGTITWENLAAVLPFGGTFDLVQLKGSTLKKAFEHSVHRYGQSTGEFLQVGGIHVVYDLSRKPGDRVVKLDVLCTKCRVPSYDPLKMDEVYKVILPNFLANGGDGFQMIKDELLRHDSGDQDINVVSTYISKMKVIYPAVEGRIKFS
In short: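 Luciferase-coupled readout: AMP left after CD73 turnover suppresses CellTiter-Glo signal (1 μM ATP final, 30 min RT). Reaction beforehand: 150 μM AMP, 0.4 nM E. coli-made His-tagged CD73 residues 27-549, test compound, HEPES pH 7.4 with Tween-20, 1 h RT. % inhibition fitted nonlinearly for IC50.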

human CD73 = biological target: T2, human CD73 (Homo sapiens, UniProt P21589); experiment: Inhibitor activity against CD73 in cell based assay (CD73 expressing CHO-K1 cells); settings: CHO-K1 cells expressing human CD73, 150 μM AMP, 4 hours of incubation; read-out: CHO-K1 CELL_VARIANT: CD73 IC50
T2 construct: expressed in transfected cells
T2 sequence (P21589 27-549): T1 sequence (P21589 27-549)
In short: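 AMP (150 μM) was added alongside 8 titrated compound doses (maximum 10 μM, 1:3 steps) to CHO-K1 cells stably expressing human CD73. After 4 h, supernatant AMP was measured indirectly with CellTiter-Glo 2.0 plus 1 μM ATP (30 min, RT). % inhibition versus high and low controls was fitted nonlinearly for IC50.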

Compound | IC50 [1] | IC50 (human CD73)
Cc1nn(CC(C)(C)O)c(C)c1-c1ccnc(O[C@H]2CN(c3cn[nH]c(=O)c3Cl)C[C@@H]2F)c1 [P-0021, 4-chloro-5-((3S,4S)-3-fluoro-4-((4-(1-(2-hydroxy-2-methylpropyl)-3,5-dimethyl-1H-pyrazol-4-yl)pyridin-2-yl)oxy)pyrrolidin-1-yl)pyridazin-3(2H)-one] | 0.001 to 10 µM | 0.001 to 10 µM
Cc1nn(CC2(F)CNC2)c(C)c1-c1cc(F)nc(O[C@@H]2CCN(c3cn[nH]c(=O)c3Cl)C2)c1 [P-0154, (R)-4-chloro-5-(3-((6-fluoro-4-(1-((3-fluoroazetidin-3-yl)methyl)-3,5-dimethyl-1H-pyrazol-4-yl)pyridin-2-yl)oxy)pyrrolidin-1-yl)pyridazin-3(2H)-one] | 0.001 to 10 µM | 0.001 to 10 µM
CC(C)c1cc(Nc2cccnc2O[C@@H]2CCN(c3cnn(CCO)c(=O)c3Cl)C2)n(C)n1 [P-0101, (R)-4-chloro-2-(2-hydroxyethyl)-5-(3-((3-((3-isopropyl-1-methyl-1H-pyrazol-5-yl)amino)pyridin-2-yl)oxy)pyrrolidin-1-yl)pyridazin-3(2H)-one] | 0.001 to 10 µM | 10 to 100 µM
Cc1nn(C)c(C)c1-c1cc(O[C@H]2CN(c3cn[nH]c(=O)c3Cl)C[C@@H]2F)ccn1 [P-0121, 4-chloro-5-((3S,4S)-3-fluoro-4-((2-(1,3,5-trimethyl-1H-pyrazol-4-yl)pyridin-4-yl)oxy)pyrrolidin-1-yl)pyridazin-3(2H)-one] | 0.001 to 10 µM | 0.001 to 10 µM
Cc1nn(C2(CC#N)COC2)c(C)c1-c1ccnc(O[C@@H]2CCN(c3cn[nH]c(=O)c3Cl)C2)c1 [P-0033, (R)-2-(3-(4-(2-((1-(5-chloro-6-oxo-1,6-dihydropyridazin-4-yl)pyrrolidin-3-yl)oxy)pyridin-4-yl)-3,5-dimethyl-1H-pyrazol-1-yl)oxetan-3-yl)acetonitrile] | 0.001 to 10 µM | 0.001 to 10 µM
O=C(NC1CCOCC1)c1ccnc(O[C@@H]2CCN(c3cn[nH]c(=O)c3Cl)C2)c1 [P-0025, (R)-2-((1-(5-chloro-6-oxo-1,6-dihydropyridazin-4-yl)pyrrolidin-3-yl)oxy)-N-(tetrahydro-2H-pyran-4-yl)isonicotinamide] | 0.001 to 10 µM | 0.001 to 10 µM
Cc1nn(C)c(C)c1-c1cc(F)nc(O[C@@H]2CCN(c3cnn(CCO)c(=O)c3Cl)C2)c1 [P-0199, (R)-4-chloro-5 (3-((6-fluoro-4-(1,3,5-trimethyl-1H-pyrazol-4-yl)pyridin-2-yl)oxy)pyrrolidin-1-yl)-2-(2-hydroxyethyl)pyridazin-3(2H)-one] | 0.001 to 10 µM | 0.001 to 10 µM
CNS(=O)(=O)c1ccc(-c2ccnc(O[C@@H]3CCN(c4cn[nH]c(=O)c4Cl)C3)c2)cc1 [P-0244, (R)-4-(2-((1-(5-chloro-6-oxo-1,6-dihydropyridazin-4-yl)pyrrolidin-3-yl)oxy)pyridin-4-yl)-N-methylbenzenesulfonamide] | 0.001 to 10 µM | 0.001 to 10 µM
CC1CCCCN1c1ccnc(O[C@@H]2CCN(c3cn[nH]c(=O)c3Cl)C2)c1 (stereo partly drawn) [P-0094, 4-chloro-5-((3R)-3-((4-(2-methylpiperidin-1-yl)pyridin-2-yl)oxy)pyrrolidin-1-yl)pyridazin-3(2H)-one] | 0.001 to 10 µM | 0.001 to 10 µM
CC(C)c1cc(Nc2cccnc2O[C@@H]2CCN(c3cn[nH]c(=O)c3Cl)C2)n(C)n1 [P-0109, (R)-4-chloro-5-(3-((3-((3-isopropyl-1-methyl-1H-pyrazol-5-yl)amino)pyridin-2-yl)oxy)pyrrolidin-1-yl)pyridazin-3(2H)-one] | 0.001 to 10 µM | 0.001 to 10 µM
CCCNS(=O)(=O)N1CCN(c2ccnc(O[C@@H]3CCN(c4cn[nH]c(=O)c4Cl)C3)c2)CC1 [P-0226, (R)-4-(2-((1-(5-chloro-6-oxo-1,6-dihydropyridazin-4-yl)pyrrolidin-3-yl)oxy)pyridin-4-yl)-N-propylpiperazine-1-sulfonamide] | 0.001 to 10 µM | 0.001 to 10 µM
Cc1nn(CC(O)CCCl)c(C)c1-c1ccnc(O[C@@H]2CCN(c3cnn(CCO)c(=O)c3Cl)C2)c1 (stereo partly drawn) [P-0064, 4-chloro-5-((3R)-3-((4-(1-(4-chloro-2-hydroxybutyl)-3,5-dimethyl-1H-pyrazol-4-yl)pyridin-2-yl)oxy)pyrrolidin-1-yl)-2-(2-hydroxyethyl)pyridazin-3(2H)-one] | 0.001 to 10 µM | 0.001 to 10 µM
N#CC1CCN(c2ccnc(O[C@@H]3CCN(c4cn[nH]c(=O)c4Cl)C3)c2)CC1 [P-0074, (R)-1-(2-((1-(5-chloro-6-oxo-1,6-dihydropyridazin-4-yl)pyrrolidin-3-yl)oxy)pyridin-4-yl)piperidine-4-carbonitrile] | 0.001 to 10 µM | 0.001 to 10 µM
CCCn1nc(C)c(-c2cc(F)nc(O[C@@H]3CCN(c4cn[nH]c(=O)c4)C3)c2)c1C [P-0164, (R)-5-(3-((4-(3,5-dimethyl-1-propyl-1H-pyrazol-4-yl)-6-fluoropyridin-2-yl)oxy)pyrrolidin-1-yl)pyridazin-3(2H)-one] | 0.001 to 10 µM | 0.001 to 10 µM
Cc1nn(C)c(C)c1-c1ccnc(O[C@@H]2CCN(c3cn[nH]c(=O)c3)C2)c1 [P-0113, (R)-5-(3-((4-(1,3,5-trimethyl-1H-pyrazol-4-yl)pyridin-2-yl)oxy)pyrrolidin-1-yl)pyridazin-3(2H)-one] | 0.001 to 10 µM | 0.001 to 10 µM
CC(C)C(=O)Nc1ccc(-c2ccnc(O[C@@H]3CCN(c4cn[nH]c(=O)c4Cl)C3)c2)c(F)c1 [P-0205, (R)-N-(4-(2-((1-(5-chloro-6-oxo-1,6-dihydropyridazin-4-yl)pyrrolidin-3-yl)oxy)pyridin-4-yl)-3-fluorophenyl)isobutyramide] | 0.001 to 10 µM | 0.001 to 10 µM
O=c1[nH]ncc(N2CC[C@@H](Oc3cc(-c4ccc(S(=O)(=O)NC5CC5)cc4)c(Cl)cn3)C2)c1Cl [P-0251, (R)-4-(5-chloro-2-((1-(5-chloro-6-oxo-1,6-dihydropyridazin-4-yl)pyrrolidin-3-yl)oxy)pyridin-4-yl)-N-cyclopropylbenzenesulfonamide] | 0.001 to 10 µM | 0.001 to 10 µM
Cc1nn(C2(CC#N)CCC2)c(C)c1-c1ccnc(O[C@@H]2CCN(c3cn[nH]c(=O)c3Cl)C2)c1 [P-0036, (R)-2-(1-(4-(2-((1-(5-chloro-6-oxo-1,6-dihydropyridazin-4-yl)pyrrolidin-3-yl)oxy)pyridin-4-yl)-3,5-dimethyl-1H-pyrazol-1-yl)cyclobutyl)acetonitrile] | 0.001 to 10 µM | 0.001 to 10 µM
O=c1[nH]ncc(N2CC[C@@H](Oc3cc(-c4ccc(C(F)(F)F)nc4)ccn3)C2)c1Cl [P-0231, (R)-4-chloro-5-(3-((6-(trifluoromethyl)-[3,4′-bipyridin]-2′-yl)oxy)pyrrolidin-1-yl)pyridazin-3(2H)-one] | 0.001 to 10 µM | 0.001 to 10 µM
Cc1nn(C)c(C)c1-c1cc(F)nc(O[C@H]2CN(c3cn[nH]c(=O)c3Cl)C[C@@H]2F)c1 [P-0191, 4-chloro-5-((3S,4S)-3-fluoro-4-((6-fluoro-4-(1,3,5-trimethyl-1H-pyrazol-4-yl)pyridin-2-yl)oxy)pyrrolidin-1-yl)pyridazin-3(2H)-one] | 0.001 to 10 µM | 0.001 to 10 µM
Cc1nn(CC(O)C(F)(F)F)c(C)c1-c1ccnc(O[C@@H]2CCN(c3cn[nH]c(=O)c3Cl)C2)c1 (stereo partly drawn) [P-0039, 4-chloro-5-((3R)-3-((4-(3,5-dimethyl-1-(3,3,3-trifluoro-2-hydroxypropyl)-1H-pyrazol-4-yl)pyridin-2-yl)oxy)pyrrolidin-1-yl)pyridazin-3(2H)-one] | 0.001 to 10 µM | 0.001 to 10 µM
Cc1c(-c2cc(F)nc(O[C@@H]3CCN(c4cn[nH]c(=O)c4Cl)C3)c2)cnn1C [P-0194, (R)-4-chloro-5-(3-((4-(1,5-dimethyl-1H-pyrazol-4-yl)-6-fluoropyridin-2-yl)oxy)pyrrolidin-1-yl)pyridazin-3(2H)-one] | 0.001 to 10 µM | 0.001 to 10 µM
Cc1nn(CC2CC(C#N)C2)c(C)c1-c1ccnc(O[C@@H]2CCN(c3cn[nH]c(=O)c3Cl)C2)c1 (stereo partly drawn) [P-0057, (R)-3-((4-(2-((1-(5-chloro-6-oxo-1,6-dihydropyridazin-4-yl)pyrrolidin-3-yl)oxy)pyridin-4-yl)-3,5-dimethyl-1H-pyrazol-1-yl)methyl)cyclobutane-1-carbonitrile] | 0.001 to 10 µM | 0.001 to 10 µM
O=c1[nH]ncc(N2CC[C@@H](Oc3cc(C4=CCCC4)ccn3)C2)c1Cl [P-0084, (R)-4-chloro-5-(3-((4-(cyclopent-1-en-1-yl)pyridin-2-yl)oxy)pyrrolidin-1-yl)pyridazin-3(2H)-one] | 0.001 to 10 µM | 0.001 to 10 µM
